Test results as given in PubChem BioAssay AID1226 (NMMLSC, 2008).
Results filed as inconclusive are left out. The source made the active and inactive calls.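 How the source made its calls: active means score of 100, fluorescent reporter fully moved to nucleus as with estrogen, or estrogen effect fully blocked; inactive means score of 0 or 50, partial or no effect.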

biological target: Estrogen receptor (Homo sapiens) (UniProt P03372); assay: ERalpha-driven PIP3 reporter nuclear translocation, orthogonal assay for ERalpha ligand project, imaging, Cos7 ERalpha-GFP, PH-RFP reporter (AID 1226); settings: at 10 µM, stronger effect = higher value
Sequence (P03372 whole entry, looked up): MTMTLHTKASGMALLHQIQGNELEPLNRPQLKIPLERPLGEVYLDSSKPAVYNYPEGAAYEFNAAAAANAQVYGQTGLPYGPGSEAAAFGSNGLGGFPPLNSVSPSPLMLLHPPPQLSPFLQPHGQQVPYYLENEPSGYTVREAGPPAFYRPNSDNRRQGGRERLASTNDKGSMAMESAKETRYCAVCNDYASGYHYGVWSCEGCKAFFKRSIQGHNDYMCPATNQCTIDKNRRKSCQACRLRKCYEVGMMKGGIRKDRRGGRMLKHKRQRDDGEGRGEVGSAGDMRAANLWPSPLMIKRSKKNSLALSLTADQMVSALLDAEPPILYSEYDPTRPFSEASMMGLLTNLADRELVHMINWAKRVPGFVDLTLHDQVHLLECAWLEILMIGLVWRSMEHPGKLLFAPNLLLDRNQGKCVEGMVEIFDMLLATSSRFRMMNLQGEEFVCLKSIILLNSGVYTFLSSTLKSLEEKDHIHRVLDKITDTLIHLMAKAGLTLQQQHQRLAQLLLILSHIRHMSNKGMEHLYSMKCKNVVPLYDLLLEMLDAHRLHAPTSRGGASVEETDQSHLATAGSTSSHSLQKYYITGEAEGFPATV

Compound | translocation response score
Brc1cc2c(cc1C1Nc3ccccc3C3C=CCC31)OCO2 (stereo not drawn) | 0 (inactive)
COc1ccccc1N1CCN(C(=O)c2ccc3nc(-c4ccco4)c(-c4ccco4)nc3c2)CC1 | 50 (inactive)
Cc1cc(-c2nn3c(-c4ccccc4)nnc3s2)c2ccccc2n1 | 100
Cc1cc(C)c2c(c1)[C@@H]1C=CC[C@@H]1[C@H](c1ccc(S(=O)(=O)N3CCOCC3)cc1)N2 | 100
COc1cccc(NS(=O)(=O)c2ccc3c(c2)C2C=CCC2C(c2ccc(C(=O)O)cc2)N3)c1 (stereo not drawn) | 50 (inactive)
O=C(O)c1cc(Cl)c2c(c1)[C@@H]1C=CC[C@@H]1[C@H](c1ccc(S(=O)(=O)N3CCOCC3)cc1)N2 | 50 (inactive)
O=C(O)c1ccc2c(c1)C1C(Cl)C(Sc3ccccc3[N+](=O)[O-])CC1C(c1cccc([N+](=O)[O-])c1)N2 (stereo not drawn) | 0 (inactive)
Nc1ncnc2c1ncn2C1CCC(CO)C(O)C1 (stereo not drawn) | 100
